# Patent publication US20150159169A1, “Plants Tolerant to HPPD Inhibitor Herbicides” (Bayer CropScience AG, priority 2009, published 2015)
# “And” between values parts separate entries of the source, which are not always exact repeats. Equal values may be shown once. “Also recorded” adds a separate entry of the source.
# Tests used:
# wild type rice plants = assay: Rice glasshouse response to tembotrione, injury classes; assay type: in vivo; details: 100 g AI/ha, 7 DAT; no transgene
# Method: (§1) T0 rooted plantlets (either selected on phosphinothricin alone or on phosphinothricin supplemented with tembotrione) were transferred to soil in the glasshouse. Following an acclimation period, sufficiently grown plants were treated with the different HPPD inhibitor herbicides. As an example, T0 plants were sprayed with tembotrione of formulation type WP20 (100 g AI/ha) supplemented with ammonium sulfate and methyl ester raps oil. Seven days after the spray application, the symptoms due to the application of the herbicide were evaluated and compared the symptoms observed on wild type plants submitted to the same treatment.
# (§2) The plants were classified in three categories based on the phenotype developed in response to the herbicide seven days after the treatment.
# [1] = tested on: T0 rice plants containing FMP27e; assay: as above; assay type: in vivo; details: 100 g AI/ha, 7 DAT
# Method: as §1, §2
# [2] = tested on: T0 rice plants containing AtHPPD; assay: as above; assay type: in vivo; details: 100 g AI/ha, 7 DAT
# Method: as §1, §2
# [3] = target: Kordia algicida HPPD "SEQ ID No. 5" (FMP27e) (Kordia algicida, UniProt A9DQF2); assay: HPLC assay of HPPD in vitro kinetic properties; assay type: biochemical
# Method: Km, Vmax, and kcat values for different HPPD enzyme preparations and Ki, K1=Kon, and K−1=Koff for different HPPD inhibitors were determined using a HPLC assay for measurements of HPPD activity. […] All assays were started by the addition of HPPD enzyme to the assay mixture and stopped at a series of times between 0 and 240 s by addition of 200 μl of the reaction mixture to reaction assay tubes containing 20 μl 10% perchloric acid. Precipitated protein was pelleted by a 5 minute centrifugation at 10,000 g.
# For Km and Vmax value determinations the initial rates of the HPPD reaction at different substrate concentrations were determined from plots of HGA formed versus time and fitted to the Michaelis-Menten equation for unireactant enzymes using the ID Business Solutions Ltd. (idbs.com) XLfit software suite.
# [4] = tested on: soybean events expressing the FMP27 HPPD protein; assay: Soybean greenhouse response to tembotrione; assay type: in vivo; details: 100 g AI/ha, ten days after application; eight events
# Method: Plants containing the transgene were then sprayed with HPPD inhibitor herbicides, as for example with tembotrione at a rate of 100 g AI/ha. Ten days after the application the symptoms due to the application of the herbicide were evaluated and compared to the symptoms observed on wild type plants under the same conditions. Eight events expressing the FMP27 HPPD protein have been generated from the green shoots of above and were transferred to the greenhouse. Four weeks after acclimation, i.e. plants at a developmental stage of 3-4 internodes were treated with 100 g AI/ha tembotrione prepared from a WP 20 formulation supplemented with ammonium sulfate and methyl ester raps oil. Ten days after application, the symptoms caused by the application of the HPPD inhibitor herbicide were evaluated and compared to the symptoms observed on treated non-transgenic wild-type soybean plants.
# wild type tobacco plants = assay: Glasshouse spray trial, % injury; assay type: in vivo, Nicotiana tabacum; details: 7DAT, 100 gAI/ha spray; individual WT plants; 100% = bleaching as wild type
# Method: (§3) T0 Tobacco plants containing either the gene from Arabidopsis coding for HPPD or the gene FMP27e from Kordia algicida coding for FMP27 HPPD, mentioned above (Example 3), were transferred to the glasshouse (28/20° C.), to develop further and produce seeds. Those seeds were harvested and put on soil (ED73 mixed with sand and osmocote Pro) to germinate in the glasshouse (28/20° C.). Three to four weeks later, plantlets were transferred to single pots containing the soil mentioned above. Two weeks later, plants of a size 4-6 cm diameter were sprayed with either • tembotrione at 100 gAI/ha prepared from a WP20 (wettable powder 20%) formulation supplemented with ammonium sulfate and methyl ester raps oil, or • isoxaflutole at 100 gAI/ha prepared from a WP20 formulation supplemented with ammonium sulfate and methyl ester raps oil, or • bicyclopyrone at 100 gAI/ha prepared from a WP20 formulation supplemented with ammonium sulfate and methyl ester raps oil, or • “blind formulation” made from a WP20 formulation without active ingredient (AI) supplemented with ammonium sulfate and methyl ester raps oil, and were then transferred to a growth chamber with adequate light conditions (20000 Lux).
# (§4) Table 6: Wild type tobacco plants (A) and T1 populations of tobacco events containing alternatively, the expression cassettes described above having the promoter CaMV 35S, the sequence coding for OTP and the sequence coding for Arabidopsis HPPD (B) or the promoter CaMV35S, the sequence encoding OTP, and the sequence FMP27e coding for the HPPD FMP27 (C). Assessments of herbicidal damage at 7 days after application (DAT) per spray with 100 g AI/ha of tembotrione or isoxaflutole supplemented with ammonium sulfate and methyl ester raps oil. […] Plants belonging to categories (B) and (C) have not been selected for the presence of the respective transgene prior to the herbicide application.
# [5] = tested on: T1 tobacco plants containing Arabidopsis HPPD; assay: Glasshouse spray trial, % injury; assay type: in vivo, Nicotiana tabacum; details: 7DAT, 100 gAI/ha spray
# Method: as §3, §4
# [6] = tested on: T1 tobacco plants containing FMP27e (Kordia algicida HPPD FMP27); assay: Glasshouse spray trial, % injury; assay type: in vivo, Nicotiana tabacum; details: 7DAT, 100 gAI/ha spray
# Method: as §3, §4
# Sequence of Kordia algicida HPPD "SEQ ID No. 5" (FMP27e) (A9DQF2 entry or part of it): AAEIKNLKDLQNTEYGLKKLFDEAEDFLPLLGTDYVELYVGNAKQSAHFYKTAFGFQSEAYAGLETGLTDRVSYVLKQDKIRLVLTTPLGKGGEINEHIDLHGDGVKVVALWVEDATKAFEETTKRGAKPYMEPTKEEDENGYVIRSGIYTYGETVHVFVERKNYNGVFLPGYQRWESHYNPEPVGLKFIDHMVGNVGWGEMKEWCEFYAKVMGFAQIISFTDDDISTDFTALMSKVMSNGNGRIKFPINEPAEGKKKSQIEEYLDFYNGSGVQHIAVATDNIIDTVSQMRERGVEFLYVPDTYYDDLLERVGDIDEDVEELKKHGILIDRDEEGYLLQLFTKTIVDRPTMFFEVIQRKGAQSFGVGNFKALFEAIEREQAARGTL
structure (smiles),measurement,setting,value
"CS(=O)(=O)c1ccc(C(=O)C2C(=O)CCCC2=O)c(Cl)c1COCC(F)(F)F [Tembotrione, 2-[2-chloro-4-(methylsulfonyl)-3-[(2,2,2,-tri-fluoroethoxy)methyl]benzoyl]-1,3-cyclo-hexanedione]","Class I, number of plants (no injuries)",wild type rice plants,0
same,"Class II, number of plants (injury: 10-40%)",wild type rice plants,0
same,"Class III, number of plants (injury: 41-100%)",wild type rice plants,20
same,"Class I, number of plants (no injuries)",[1],2
same,"Class II, number of plants (injury: 10-40%)",[1],17
same,"Class III, number of plants (injury: 41-100%)",[1],4
same,"Class I, number of plants (no injuries)",[2],1
same,"Class II, number of plants (injury: 10-40%)",[2],13
same,"Class III, number of plants (injury: 41-100%)",[2],9
same,Ki,[3],33 µM
same,kon,[3]; read-out: k1 (=Kon),490 M⁻¹ s⁻¹
same,koff,[3]; read-out: k−1 (=Koff),0.016 s⁻¹
same,bleaching symptoms of events,[4],Two of the eight events didn't show any bleaching phenotype; also recorded: One event showed transitory light bleaching symptoms but recovered 14 days after tembotrione application; also recorded: remaining five events exhibited the bleaching like non-transgenic wild-type soybean plant
same,% injury,wild type tobacco plants,100%
same,% injury,"[5]; line 252, individual T1 plants",30% and 40% (3×) and 50% and 60% (2×) and 70% (2×) and 75% (3×) and 80%
same,% injury,"[5]; line 258, individual T1 plants",100% (5×) and 30%
same,% injury,"[5]; line 327, individual T1 plants",10% and 20% (2×) and 40% and 50% (2×) and 70% (5×) and 80% (4×)
same,% injury,"[6]; line 121, individual T1 plants",0% (4×) and 5% (3×) and 10% (6×)
same,% injury,"[6]; line 129, individual T1 plants",0% (2×) and 5% (2×) and 10% (2×) and 15% (2×) and 30% (2×)
same,% injury,"[6]; line 218, individual T1 plants",0% (11×) and 5% (4×)
